Consider 48 compounds from publication PMC10977697 (PLOS ONE, 2024).

Where no end group is shown, it is not given here.

For the first assay, the system named is Lgr5ECD-Fc. Format: binding, human. Conditions: ratio of signal for target protein over BSA background.
With “GPTQSQFGMCGGIGYSGPTVCASGTTCQVLDPTTSQCLPGAS (also: bicyclic or more (positions not given here)) [Lgr5ECD-Fc CBD 4]”, the S/N is listed as 40.8. Take “GCRHGYWFHYWFCKQDSDCLAGCVCGPNGFCG (also: bicyclic or more (positions not given here)) [Lgr5ECD-Fc EET I-II 23]”: the S/N is 3.9. The same measure, in the same setting: the value for “GCGYWYRIWFCKQDSDCLAGCVCGPNGFCG (also: bicyclic or more (positions not given here)) [Lgr5ECD-Fc EET I-II 3]” was 43.5. The same measure, in the same setting: then “GCGFWWKYWFCKQDSDCLAGCVCGPNGFCG (also: bicyclic or more (positions not given here)) [Lgr5ECD-Fc EET I-II 20]”, with 6.1; and “GPTQSAFGPCGGIGYSGHTVCASGTTCQVLSPNVSHCLPGAS (also: bicyclic or more (positions not given here)) [Lgr5ECD-Fc CBD 16]”, with 6.6. On to “GPTQSAFGPCGGIGYSGPTVCASGTTCQVLSPDVSRCLPGAS (also: bicyclic or more (positions not given here)) [Lgr5ECD-Fc CBD 8]”, for which the S/N is 30.3. For the compound “GPAHSTYGRCGGIDYYGPTVCASGTTCLVLWPALSWCLPRSF (also: bicyclic or more (positions not given here)) [Lgr5ECD-Fc CBD 17]”, the S/N amounted to 26.2. As for “GCGWWYRQWFCKQDSDCLAGCVCLETPECG (also: bicyclic or more (positions not given here)) [Lgr5ECD-Fc EET I-II 4]”, the S/N was found to be 40.2. Regarding “GPTQSQYGICGGIGYSGPTVCASGTTCQVLSPEFSQCLPGAS (also: bicyclic or more (positions not given here)) [Lgr5ECD-Fc CBD 14]”, the S/N is recorded as 12.1. Take “GCSYWWRVWFCKQDSDCLAGCVCGPNGFCG (also: bicyclic or more (positions not given here)) [Lgr5ECD-Fc EET I-II 19]”: the S/N came out at 7.2. Turning to “GCTSNFWYKQWFCKQDSDCLAGCVCGPNGFCG (also: bicyclic or more (positions not given here)) [Lgr5ECD-Fc EET I-II 5]”, the S/N stood at 39.0. For the compound “GPTQSQYGICGGIGYSGPTVCASGTTCQVLSPDWSQCLPGAS (also: bicyclic or more (positions not given here)) [Lgr5ECD-Fc CBD 9]”, the S/N is 23.7. “GCNRSYWFRQWFCKQDSDCLAGCVCGPNGFCG (also: bicyclic or more (positions not given here)) [Lgr5ECD-Fc EET I-II 22]”: the S/N was 4.7.

The test system of another assay is HtrA1. Format: binding, human.
Conditions: not given
The compound `CC[C@H](C)[C@@H]1NC(=O)[C@H](CO)NC(=O)[C@@H]2CSSC[C@@H]3NC(=O)[C@H](CO)NC(=O)CNC(=O)[C@H]([C@@H](C)O)NC(=O)[C@H](CSSC[C@H](N)C(=O)N[C@@H](CCCCN)C(=O)NCC(=O)N[C@@H](CCCCN)C(=O)NCC(=O)N[C@@H](C)C(=O)N[C@@H](CCCCN)C(=O)N2)NC(=O)[C@H](CSSC[C@@H](C(=O)O)NC(=O)[C@H](CCCCN)NC(=O)CNC(=O)[C@H](CO)NC(=O)[C@H](CCCNC(=N)N)NC3=O)NC(=O)[C@H](C(C)C)NC(=O)[C@H](CCCCN)NC(=O)[C@H](Cc2c[nH]c3ccccc23)NC(=O)[C@@H]2CCCN2C(=O)[C@H](Cc2ccc(O)cc2)NC(=O)[C@H](C(C)C)NC(=O)[C@H](CO)NC(=O)[C@H](Cc2c[nH]c3ccccc23)NC(=O)[C@H](CCC(N)=O)NC1=O` [HtrA1_CnTx83] had a S/N of 16.1.

Staying with this assay, now noted: ratio of signal for target protein over BSA background.
As for “AFDCLGQCGRCDFHKLQCVWSIYVKFWYCNSSCTR (also: bicyclic or more (positions not given here)) [HtrA1 AVR9 4]”, the S/N worked out at 21.2. On the same count and under the same terms, then “AFDCLGQCGRCDFHKLQCVMMRLLARWVFKFYCNSSCTR (also: bicyclic or more (positions not given here)) [HtrA1 AVR9 52]”, with 13.2; and “AFDCLGQCGRCDFHKLQCVLWTVANMQHYYCNSSCTR (also: bicyclic or more (positions not given here)) [HtrA1 AVR9 85]”, with 6.5. As for “WIPCISAALGCSCKNKVCYIVILTTPCGESCV (also: bicyclic or more (positions not given here)) [HtrA1 CirculinA 73]”, the S/N amounted to 8.4. Regarding “WIPCISAALGCSCKNKVCYVATMVVHWVCGESCV (also: bicyclic or more (positions not given here)) [HtrA1 CirculinA 34]”, the S/N is on record as 16.8. Consider “AFDCLGQCGRCDFHKLQCVLWHQWVKWYVYCNSSCTR (also: bicyclic or more (positions not given here)) [HtrA1 AVR9 68]”, for which the S/N is 8.9.

As to “AFDCLGQCGRCDFHKLQCVVFQIIYQAVNYCNSSCTR (also: bicyclic or more (positions not given here)) [HtrA1 AVR9 88]”, the S/N is 9.5. Turning to “GCWWMNVRTRQGCKQDSDCLAGCVCGPNGFCG (also: bicyclic or more (positions not given here)) [HtrA1 EET I-II 25]”, the S/N worked out at 2.8.

As for “WIPCISAALGCSCKNKVCYYMWHVHSLICGESCV (also: bicyclic or more (positions not given here)) [HtrA1 CirculinA 36]”, the S/N was 9.6. In the case of “WIPCISAALGCSCKNKVCYYTILPISYYWHLVCGESCV (also: bicyclic or more (positions not given here)) [HtrA1 CirculinA 45]”, the S/N is recorded as 8.2. For “GCHSVHSMCKQDSDCLAGCVCYWFYGCG (also: bicyclic or more (positions not given here)) [HtrA1 EET I-II 1]”, the S/N is recorded as 11.8.

“AFDCLGQCGRCDFHKLQCVIQQMRWKAQPDGYCNSSCTR (also: bicyclic or more (positions not given here)) [HtrA1 AVR9 37]”: the S/N is reported as 9.7. On to “GPTQSHYGQCGGSGYWGLFMCASGTTCQSVTMTVSQCLPGAS (also: bicyclic or more (positions not given here)) [HtrA1 CBD 54]”, for which the S/N was 5.6.

As for “AFDCLGQCGRCDFHKLQCVVTIIRKMMLWYCNSSCTR (also: bicyclic or more (positions not given here)) [HtrA1 AVR9 31]”, the S/N stood at 19.0.

Take “GCREMLGNWVCKRFRLSSWLCLWSNGFCGT [HtrA1 EET I-II 41]”: the S/N is 11.8. Consider “WIPCISAALGCSCKNKVCYFFHKLMYYMCGESCV (also: bicyclic or more (positions not given here)) [HtrA1 CirculinA 24]”, for which the S/N stood at 17.7. Regarding “GCPRILMRCKQDSDCLAGCVCWMPVLCV (also: bicyclic or more (positions not given here)) [HtrA1 EET I-II 19]”, the S/N was found to be 3.1. As to “GPTQSHYGQCGGRGYFGTMYCASGTTCQFKWRRDSQCLPGAS (also: bicyclic or more (positions not given here)) [HtrA1 CBD 74]”, the S/N is listed as 22.8. The same measure, in the same setting: the value for “AFDCLGQCGRCDFHKLQCVRWSIDAIIIWYCNSSCTR (also: bicyclic or more (positions not given here)) [HtrA1 AVR9 42]” was 12.1; that for “AFDCLGQCGRCDFHKLQCVWRYIQKMRYCNSSCTR (also: bicyclic or more (positions not given here)) [HtrA1 AVR9 89]” was 14.9. In the case of “WIPCISAALGCSCKNKVCYYAGKIYSWQAQLLCGESCV (also: bicyclic or more (positions not given here)) [HtrA1 CirculinA 93]”, the S/N came out at 8.4. For the compound “AFDCLGQCGRCDFHKLQCVAWLMYSFVRPYCNSSCTR (also: bicyclic or more (positions not given here)) [HtrA1 AVR9 53]”, the S/N worked out at 7.3. As to “AFDCLGQCGRCDFHKLQCVQYAYRWLMRQYCNSSCTR (also: bicyclic or more (positions not given here)) [HtrA1 AVR9 55]”, the S/N was found to be 4.1. For “AFDCLGQCGRCDFHKLQCVRYLIKYSIMWMTYCNSSCTR (also: bicyclic or more (positions not given here)) [HtrA1 AVR9 26]”, the S/N is reported as 15.1. Turning to “WIPCISAALGCSCKNKVCYFMTQHIRWFVKCGESCV (also: bicyclic or more (positions not given here)) [HtrA1 CirculinA 91]”, the S/N stood at 26.8.

Consider “WIPCISAALGCSCKNKVCYMYYYIMGQNLMNTCGESCV (also: bicyclic or more (positions not given here)) [HtrA1 CirculinA 48]”, for which the S/N is 24.1. Take “AFDCLGQCGRCDFHKLQCVFWHWYYCNSSCTR (also: bicyclic or more (positions not given here)) [HtrA1 AVR9 84]”: the S/N was 8.5. As to “AFDCLGQCGRCDFHKLQCVYRQFWMVKFGWQPGYCNSSCTR (also: bicyclic or more (positions not given here)) [HtrA1 AVR9 10]”, the S/N was found to be 15.2. With “AFDCLGQCGRCDFHKLQCVKQVMATLWSMYCNSSCTR (also: bicyclic or more (positions not given here)) [HtrA1 AVR9 39]”, the S/N is on record as 9.9. With “WIPCISAALGCSCKNKVCYQVWQHIFKCGESCV (also: bicyclic or more (positions not given here)) [HtrA1 CirculinA 67]”, the S/N came to 15.4.

“AFDCLGQCGRCDFHKLQCVWRWMHQYCNSSCTR (also: bicyclic or more (positions not given here)) [HtrA1 AVR9 2]”: the S/N is reported as 22.7. Turning to “WIPCISAALGCSCKNKVCYYVMKYCGESCV (also: bicyclic or more (positions not given here)) [HtrA1 CirculinA 17]”, the S/N was determined as 13.7. Turning to “WIPCISAALGCSCKNKVCYHFQHWVQMNKCGESCV (also: bicyclic or more (positions not given here)) [HtrA1 CirculinA 82]”, the S/N is given as 10.4. Turning to “WIPCISAALGCSCKNKVCYILNRSCGESCV (also: bicyclic or more (positions not given here)) [HtrA1 CirculinA 40]”, the S/N was 8.0.
